Target: T1, CatSper (Mus musculus, UniProt A2ARP9+Q80W99+Q8BVN3+Q91ZR5)
T1 construct: gene Catsper1; native channel complex in live cauda epididymal sperm; pore of four homologous subunits CatSper 1-4 plus auxiliary subunits; with Cation channel sperm-associated auxiliary subunit beta; Cation channel sperm-associated auxiliary subunit gamma 2; Cation channel sperm-associated auxiliary subunit delta; Cation channel sperm-associated auxiliary subunit epsilon; Cation channel sperm-associated auxiliary subunit zeta; Cation channel sperm-associated targeting subunit tau; Cation channel sperm-associated auxiliary subunit TMEM262; Solute carrier organic anion transporter family member 6C1; Cation channel sperm-associated auxiliary subunit TMEM249
Assay: EGTA-induced Na+ depolarization of live sperm, DiSC3([…]) fluorescence, flow cytometry and spectrofluorometry
Assay type: cell-based
Details: non-capacitated sperm, NC TYH medium pH 7.4, 3.5 mM EGTA (free Ca2+ 138 nM)

O=C(c1cccs1)c1no[n+]([O-])c1C(=O)c1cccs1 [HC-056456]
block of EGTA-induced depolarization at 10 μM: HC-056456 inhibits CatSper in a concentration-dependent manner

From paper PMC9892719, “High-throughput screening method for discovering CatSper inhibitors using membrane depolarization caused by external calcium chelation and fluorescent cell barcoding” (Frontiers in Cell and Developmental Biology, 2023)
